Source: PubChem BioAssay (NCI)
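Each compound was tested at five concentrations against cells in 96-well plates for 48 hours. GI50 marks 50% less growth. TGI: total growth inhibition.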

System: MDA-MB-468 breast
Experiment: inhibition of tumour cell growth, NCI panel, 48 h

| Structure (SMILES) | GI50 [µM] | TGI [µM] |
| --- | --- | --- |
| Cc1nc2sc(C(=O)Nc3cccc(Cl)c3C)c(N)c2cc1C(=O)c1ccccc1 | 0.126 | 0.889 |
| CN1CCN(CCCN2c3ccccc3Sc3ccc(C(F)(F)F)cc32)CC1 | 1.52 | 3.19 |
| CC(=O)OC[C@@]12Oc3c(cccc3-c3ccc(O)c4c3O[C@]3(COC(C)=O)C(=C4O)C(=O)C[C@H](C)[C@@H]3OC(C)=O)C(O)=C1C(=O)C[C@H](C)[C@@H]2OC(C)=O | 15.1 | 48.7 |
| O=C(Nc1cccc(-n2cc(-c3ccncc3)c(-c3ccc(O)c(Cl)c3)n2)c1)c1ccc(N2CCOCC2)c(C(F)(F)F)c1 | 35.3 | > 50 |
| COc1ccc2c(c1)c(-c1nc(-c3cn(C)c4ncccc34)cs1)cn2CCCCN1CCOCC1 | 1.34 | 3.08 |
| CC(=O)Nc1ccc(S(=O)(=O)c2ccc(NC(C)=O)cc2)cc1 | 64.8 | > 100 |
| CN1CCN(CCCOc2ccc3nc(Nc4ccc(C(F)(F)F)c(Cl)c4)ccc3c2)CC1 | 1.54 | 3.16 |
| O=C1CCCC(=O)C1C(=O)c1ccc(C(F)(F)F)cc1[N+](=O)[O-] | > 100 | > 100 |
